Data set [1] can be described thus: Antioxidant activity assessed as DPPH free radical scavenging activity at 10 uM after 40 mins by UV-Vis spectrophotometry. In kind it is physicochemical. On the technique in general: DPPH is a stable violet radical that fades when it is reduced.
The subject of data set [2] is Brain. Put plainly: Reduction of MDA level in Wistar rat brain at 100 uM after 30 mins in presence of ascorbic acid by UV-vis spectrophotmetry relative to control. In kind it is functional. The note with it: 0.5 h.
Data set [3] can be described thus: Antioxidant activity assessed as DPPH free radical scavenging activity at 1 uM after 40 mins by UV-Vis spectrophotometry. In kind it is physicochemical.
Data set [4] is described as follows: Antioxidant activity assessed as DPPH free radical scavenging activity at 100 uM after 40 mins by UV-Vis spectrophotometry. It is filed as physicochemical.
In data set [5] the target is Aldo-keto reductase family 1 member B1 (Rattus norvegicus, UniProt P07943). Put plainly: Inhibition of ALR2 from rat lens using D,L-glyceraldehyde as substrate measured as absorption of NADPH for 4 mins by UV/vis spectrophotmetry.
Data set [6] in a line: Antioxidant activity assessed as DPPH free radical scavenging activity at 100 uM after 120 mins under sunlight by UV-Vis spectrophotometry. Particulars: 2 h. In kind it is physicochemical.
A short description of data set [7]: Antioxidant activity assessed as DPPH free radical scavenging activity at 10 uM after 120 mins under sunlight by UV-Vis spectrophotometry. Particulars: 2 h. It is filed as physicochemical.
Data set [8] in a line: Antioxidant activity assessed as DPPH free radical scavenging activity after 30 mins under sunlight by UV-Vis spectrophotometry. In kind it is physicochemical.
A short description of data set [9]: Antioxidant activity assessed as DPPH free radical scavenging activity at 1 uM after 30 mins under sunlight by UV-Vis spectrophotometry. It is filed as physicochemical. The note with it: 0.5 h.
The nature of data set [10]: Antioxidant activity assessed as DPPH free radical scavenging activity at 100 uM after 30 mins under sunlight by UV-Vis spectrophotometry. Particulars: 0.5 h. In kind it is physicochemical.
Data set [11] in a line: Antioxidant activity assessed as DPPH free radical scavenging activity at 10 uM after 30 mins under sunlight by UV-Vis spectrophotometry. In kind it is physicochemical. Particulars: 0.5 h.

Structures are written as SMILES.

For orientation: inhibition means the drop in the measured response relative to a control, in per cent. Consider `Cc1c(C)c2c(c(C)c1O)CCC(C)(C(=O)O)O2` (stereo not drawn) [TROLOX], for which the “inhibition (INH)” value amounted to 91.1% in data set [1], 32% in data set [3] and 97% in [4]. Further, the inhibition at 100 µM in [2] came out at 100%.
As a reminder, the IC50 is the concentration that gives 50% inhibition. With `COc1ccc(CN2CN(CC(=O)O)c3ccc(Br)cc3S2(=O)=O)cc1`, in data set [5], the IC50 worked out at 7.2 µM. In addition, the inhibition at 100 µM in [2] was 2.6%. Also, in [4], the “inhibition (INH)” value is recorded as 6.2%.
For `COc1ccc2c(c1)S(=O)(=O)N(Cc1ccccc1)CN2CC(=O)O`, in that order: 13.6 µM, 42.3% and 53.1%.
In the same order, the values of `Cc1ccc2c(c1)S(=O)(=O)N(Cc1ccc(O)cc1)CN2CC(=O)O` are 5.6 µM, 11% and 5.2%.
For `COc1ccc(F)c(CN2CN(CC(=O)O)c3ccc(C)cc3S2(=O)=O)c1`, in that order: 3.5 µM, 4.47% and 18.9%.
The compound `O=C(O)CN1CN(Cc2ccccc2)S(=O)(=O)c2cc(O)ccc21` yielded an IC50 in data set [5] of 9.4 µM. Moreover, the inhibition at 100 µM in data set [2] was found to be 88%. The results for the “inhibition (INH)” value in data set [6] and in [7] were 93.3% and 24.4%, respectively.
In the case of `COc1ccc(CN2CN(CC(=O)O)c3ccc(Cl)cc3S2(=O)=O)cc1`, the IC50 in data set [5] amounted to 7.5 µM. Further, the inhibition at 100 µM in data set [2] was determined as 1.6%. Besides, the “inhibition (INH)” value in data set [4] amounted to 5.9%.
In the case of `Cc1ccc2c(c1)S(=O)(=O)N(Cc1cc(O)ccc1F)CN2CC(=O)O`, the IC50 in data set [5] was 4.8 µM. Moreover, the inhibition at 100 µM in [2] turned out to be 14.1%. The “inhibition (INH)” value in data set [4] was determined as 32.3%.
For `COc1ccc(F)c(CN2CN(CC(=O)O)c3ccc(Br)cc3S2(=O)=O)c1`, in that order: 1.8 µM, 9.55% and 44.3%.
A word on the EC50: it is the concentration at which the effect is half-maximal. As to `O=C(O)CN1CN(Cc2ccc(O)cc2)S(=O)(=O)c2cc(O)ccc21`, the IC50 in data set [5] worked out at 7.6 µM. Moreover, in [8], the EC50 amounted to 7.6 µM. Also, the inhibition at 100 µM in [2] is 100%. Further, the “inhibition (INH)” value came to 42.1% in data set [9], 98% in [10] and 92.3% in [11].
For the compound `CC(/C=C1\SC(=S)N(CC(=O)O)C1=O)=C\c1ccccc1`, in [2], the inhibition at 100 µM stood at 0%. Further, the “inhibition (INH)” value in data set [4] was 0%.
In data set [5], `COc1ccc(CN2CN(CC(=O)O)c3ccc(OC)cc3S2(=O)=O)cc1` displayed an IC50 of 11.2 µM. The inhibition at 100 µM in data set [2] was 31.5%. In addition, the “inhibition (INH)” value in data set [4] came to 40.6%.
`COc1ccc(CN2CN(CC(=O)O)c3ccc(C)cc3S2(=O)=O)cc1`: the IC50 in data set [5] came out at 18.2 µM. In addition, the inhibition at 100 µM in data set [2] was 8.4%. Besides, the “inhibition (INH)” value in [4] worked out at 3.1%.

The values are drawn from ChEMBL document CHEMBL3797117 (Bioorg Med Chem Lett, 2016).
